13 compounds from PubChem BioAssay (NCI) can be followed below.

Test systems include OVCAR-8 ovarian; M19-MEL melanoma; OVCAR-5 ovarian; HCT-116 colon; SF-295 CNS; COLO 205 colon; HCT-15 colon; DMS 273 small cell lung; LOX IMVI melanoma; PC-3 prostate; T-47D breast.
Test in all cases: NCI-60 cell line screen, 48 h

“And” between values parts separate entries of the source, which are not always exact repeats. Equal values may be shown once.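 All cell lines were grown in 96-well plates and treated with compound for 48 hours. GI50: concentration for 50% inhibition of growth. TGI: concentration producing complete growth inhibition.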

Turning to `O=c1cc(-c2ccccc2)oc2cc(OCCCCCCCCCCOc3ccc4c(=O)cc(-c5ccccc5)oc4c3)ccc12`, the TGI in the assay on OVCAR-8 ovarian, with M19-MEL melanoma, in the assay with OVCAR-5 ovarian, with HCT-116 colon, in the assay on SF-295 CNS and with COLO 205 colon was greater than 100 µM each time. The TGI in the assay on HCT-15 colon and in the assay on DMS 273 small cell lung was greater than 100 µM each time.
`Cc1cccc(NC(=S)Nc2cccc(Cl)c2)n1`: the TGI in the assay on LOX IMVI melanoma is greater than 100 µM; with OVCAR-8 ovarian, greater than 100 µM; in the assay on PC-3 prostate it was greater than 100 µM; with OVCAR-5 ovarian, greater than 100 µM; in the assay on HCT-116 colon it was greater than 100 µM; with SF-295 CNS it was greater than 78.4 µM. Further, the TGI with T-47D breast, in the assay on COLO 205 colon and in the assay on HCT-15 colon was greater than 100 µM throughout.
For `CC(C)(C)N=C1C(=O)C2(C)CCC1C2(C)C` (stereo not given), the TGI in the assay with LOX IMVI melanoma, with OVCAR-8 ovarian, in the assay with PC-3 prostate, with OVCAR-5 ovarian, in the assay with HCT-116 colon and in the assay on SF-295 CNS was greater than 100 µM in each case. Also, the TGI with T-47D breast, in the assay on COLO 205 colon and in the assay with HCT-15 colon was greater than 100 µM each time.
Regarding `Clc1cc(Cl)nc(Nc2ccc3c(c2)CCC3)n1`, the TGI with LOX IMVI melanoma was 91.1 µM; in the assay on OVCAR-8 ovarian, greater than 100 µM; in the assay on PC-3 prostate, greater than 100 µM; in the assay on OVCAR-5 ovarian it was greater than 100 µM; in the assay on HCT-116 colon, greater than 100 µM; in the assay on SF-295 CNS, greater than 100 µM. In addition, the TGI in the assay on T-47D breast was greater than 100 µM; in the assay with COLO 205 colon it was 46.9 µM; in the assay with HCT-15 colon, greater than 100 µM.
For `CC(C)=CC(=O)OC1C2C(C)=CC(=O)C(O)C2(C)C2C3(O)OCC24C(CC(=O)OC14)C(C)C3O` (stereo not given), the GI50 was 0.0298 µM in the assay on LOX IMVI melanoma; 0.0251 µM in the assay on OVCAR-8 ovarian; 0.113 µM in the assay on OVCAR-5 ovarian; 0.02 µM in the assay on HCT-116 colon; 0.0126 µM in the assay with SF-295 CNS; 0.117 µM in the assay on COLO 205 colon. For the same compound, the GI50 in the assay on HCT-15 colon is 0.0579 µM and 0.0541 µM; in the assay with DMS 273 small cell lung it was 0.02 µM. Moreover, the TGI is 0.125 µM and 0.0247 µM and 0.0683 µM in the assay with OVCAR-8 ovarian; 0.0252 µM and 0.027 µM in the assay on M19-MEL melanoma; 0.0129 µM in the assay on PC-3 prostate; 0.0172 µM and 0.0807 µM in the assay on HCT-116 colon; 0.154 µM and 0.0672 µM and 0.0966 µM in the assay with SF-295 CNS; 0.0108 µM in the assay on T-47D breast. In addition, the TGI is 0.359 µM and 1.11 µM and 0.42 µM in the assay with COLO 205 colon; 0.212 µM and 0.853 µM and 0.687 µM in the assay on HCT-15 colon; 0.0122 µM and 0.0241 µM in the assay with DMS 273 small cell lung.
`CC(=O)OC1C2CCC3CC2C2(SCCS2)C31` (stereo not given): the TGI with LOX IMVI melanoma, in the assay on OVCAR-8 ovarian, with PC-3 prostate, in the assay on OVCAR-5 ovarian, with HCT-116 colon and with SF-295 CNS was greater than 100 µM throughout. Also, the TGI in the assay with T-47D breast, in the assay on COLO 205 colon and with HCT-15 colon was greater than 100 µM throughout.
As for `CC(C)(C)c1cc(C(C)(C)C)c(SC2OC(CO)C(O)C(O)C2O)c(O)c1O` (stereo not given), the TGI came to 22.9 µM in the assay on LOX IMVI melanoma; 27.7 µM with OVCAR-8 ovarian; 28.3 µM with PC-3 prostate; 32.1 µM in the assay on OVCAR-5 ovarian; 29.1 µM in the assay on HCT-116 colon; 28.3 µM in the assay with SF-295 CNS. The TGI in the assay with T-47D breast is 72.4 µM; with COLO 205 colon it was greater than 81.4 µM; in the assay on HCT-15 colon, 18.8 µM.
`COC1CCC(CO)OO1` (stereo not given): the TGI in the assay on M19-MEL melanoma was greater than 100 µM; with OVCAR-5 ovarian, greater than 100 µM; in the assay on HCT-116 colon, greater than 100 µM; in the assay with SF-295 CNS it was 73.6 µM; in the assay on COLO 205 colon it was greater than 100 µM.
With `C=CCCCN(C(=O)c1ccccc1)c1ccc(C(=O)OC)o1`, the TGI in the assay with LOX IMVI melanoma, in the assay on OVCAR-8 ovarian, in the assay on PC-3 prostate, in the assay on OVCAR-5 ovarian, in the assay with HCT-116 colon and with SF-295 CNS was greater than 100 µM in each case. The TGI in the assay on T-47D breast, in the assay with COLO 205 colon and with HCT-15 colon was greater than 100 µM each time.
Take `COc1ccc(/C=C/C(=O)c2cc(CN(C)C)c(O)c(CN(C)C)c2)cc1`: the TGI was 31.9 µM in the assay on LOX IMVI melanoma; greater than 100 µM in the assay with OVCAR-8 ovarian; 85.8 µM with PC-3 prostate; greater than 100 µM in the assay with OVCAR-5 ovarian; greater than 100 µM with HCT-116 colon; 91.1 µM in the assay with SF-295 CNS. Moreover, the figures for the TGI in the assay on T-47D breast, in the assay with COLO 205 colon and with HCT-15 colon were greater than 100 µM, 32.5 µM and greater than 100 µM, respectively.
For `CN1CCC(O)(OC(=O)C(c2ccccc2)C2(O)CCCC2)CC1` (stereo not given), the TGI in the assay with LOX IMVI melanoma, in the assay with OVCAR-8 ovarian, with PC-3 prostate, in the assay with OVCAR-5 ovarian, in the assay on HCT-116 colon and in the assay with SF-295 CNS was greater than 100 µM in each case. The TGI in the assay with T-47D breast, with COLO 205 colon and in the assay with HCT-15 colon was greater than 100 µM in each case.
Regarding `Cc1c2oc(=O)c(C#N)cc2c2ccccn12`, the TGI in the assay on LOX IMVI melanoma was greater than 100 µM; in the assay with OVCAR-8 ovarian it was greater than 100 µM; in the assay with PC-3 prostate, greater than 100 µM; in the assay on OVCAR-5 ovarian, greater than 100 µM; in the assay on HCT-116 colon, greater than 100 µM; in the assay with SF-295 CNS, 40.7 µM. In addition, the TGI in the assay on T-47D breast, in the assay with COLO 205 colon and in the assay on HCT-15 colon was greater than 100 µM each time.
Consider `COC(=O)CCCc1nc2ccccc2nc1N=Nc1ccccc1`, for which the TGI was 31.3 µM in the assay on LOX IMVI melanoma; 58.5 µM in the assay with OVCAR-8 ovarian; greater than 100 µM in the assay with PC-3 prostate; greater than 100 µM in the assay with OVCAR-5 ovarian; greater than 100 µM with HCT-116 colon; greater than 100 µM in the assay on SF-295 CNS. Also, the TGI in the assay with T-47D breast was greater than 100 µM; in the assay on COLO 205 colon, 31.2 µM; with HCT-15 colon, greater than 100 µM.
